Source: patent US7611853B2, “Assay to screen for anti-malarials” (priority 2002, dated 2009)

Columns and labels:
[1] = test system: Plasmodium falciparum; experiment: Growth inhibitory effect of GA on synchronous parasites (Giemsa-stained smears); assay type: cell-based
Source text: In order to check if GA could inhibit Plasmodium falciparum growth in vitro, we prepared highly synchronous ring-infected parasites using 5% sorbitol. These ring-staged parasites were suspended in RPMI to make 5% hematocrit. […] This correlates with elevated expression of Pfhsp90 in the trophozoite stage compared to ring stage.

[2] = test system: Plasmodium falciparum ring-infected erythrocytes; experiment: Anti-malarial effect of GA and HA on overall parasitemia (giemsa staining); assay type: cell-based
Protocol: To show the effects of GA on overall parasitemia, ring-infected erythrocytes were either treated with DMSO or with 5 μM GA for 48 hrs (culture was replenished with medium and GA every 24 hrs) and parasitemia was calculated by giemsa staining. While the mock-treated parasites multiplied at the end of 48 hrs, parasitemia was reduced to 50 percent in GA treated cultures by 48 hrs.

COC1=C2C[C@@H](C)C[C@H](OC)[C@H](O)[C@@H](C)/C=C(\C)[C@H](OC(N)=O)[C@@H](OC)/C=C\C=C(/C)C(=O)NC(=CC1=O)C2=O [GA, Geldanamycin]
inhibition at 10 µM ([1]; Plasmodium falciparum, GA added in the trophozoite stage, 10 μM): 100%
concentration of maximal growth inhibition ([1]; ring-staged parasites, 24 h): 5 µM
parasitemia reduced to ([2]; ring-infected erythrocytes, 5 μM, 48 hrs, replenished every 24 hrs): 50%

CO[C@H]1[C@@H](OC)C[C@H](C)[C@@H](OC)C2=CC(=O)C=C(NC(=O)/C(C)=C/C=C\[C@H](OC)[C@@H](OC(N)=O)/C(C)=C/[C@@H]1C)C2=O [HA, Herbimycin A]
anti-malarial effect (summary statement) [2]: kill the malarial parasite at the stage of early trophozoite development
concentration of maximal reduction in parasitemia ([2]; 0.5, 1, 5 and 10 μM tested, 48 hrs): 10 µM
